Measured values reported in US20260273020A1, “OBESTATIN FOR USE AS ANTINEOPLASTIC AGENT IN THE TREATMENT OF PANCREATIC CANCER” (SERVIZO GALEGO DE SAÚDE, priority 2023, published 2026).

Tests used:
[1] = tested on: KPC FC1242 cells; assay: Proliferation assay, cell counting under chronic obestatin treatment; assay type: cell-based, mouse
Experimental: The murine pancreatic cancer cells KPC FC1242 were isolated from PDAC tumour tissues obtained from LSL-KrasG12D; LSL-Trp53R172H; Pdx1-Cre mice of a pure C57BL/6 background. This cell line was kindly donated by David A. Tuveson (Cold Spring Harbor Laboratory, Cold Spring Harbor, New York, US). KPC FC1242 were maintained in DMEN (Lonza, Basel, CH), and supplemented with 10% fetal bovine serum (FBS; Hyclone, GE Healthcare Life Sciences, South Logan, UT, US), 4.5 g/L glucose, 200 mg/L sodium pyruvate, 584 mg/L L-glutamine and 1% penicillin/streptomycin (Sigma-Aldrich, St. Louis, MO, US) and incubated in an atmosphere containing 5% CO2 at 37° C. These cells were periodically tested and resulted negative for mycoplasma contamination.
For the analysis of proliferation the cells were seeded on 12-well plates at an amount of 50,000 cells per well and maintained for 24 h in culture media (see above) to allow attachment. The medium was completely removed and replaced with serum-free media for additional 24 h. […] Twenty-four h after the last treatment, the cells were trypsinized and manually counted with a Neubauer camera.
The total cells were calculated using the following equations counting 10 squares: […]

[2] = tested on: Ki67 positive proliferative cells; assay: Ki67 immunohistochemistry of pancreatic tumours; assay type: in vivo, C57BL/6J mice; conditions: tumour area; obestatin 500 nmol/Kg/72 h
Experimental: FIG. 4. (A) Analysis and quantification of Ki67 positive proliferative cells by immunohistochemistry in the pancreatic tumors of C57BL/6J mice (n=4) orthotopically injected with KPC FC1242 cells and treated with vehicle [NaCl, 0.9% (w/v)] or obestatin (500 nmol/Kg/72 h). Magnification: 4×. (B) Immunoblot analysis of pERK1/2(T202/Y204), ERK1/2, pAkt(S473), and Akt in tumoral pancreatic tissue. Results are expressed as fold of control of the non-treated injected mice [control; mean±SE (*, P<0.05)].
Mice were weighed at set times over the 15-day period. The sterilized surgical material was used for the tissue extraction. […] Pancreases were also measured with a scale (cm) and pictures were taken. • Histology—Pancreas samples for histology were fixed in 4% paraformaldehyde in PBS at room temperature overnight. […] The lysates were clarified by centrifugation (18,000×g, 15 min, 4° C.), and the protein concentration was quantified by the Quantipro™ BCA assay kit (Sigma-Aldrich, St. Louis, MO, US). […]
EnVision™ peroxidase FLEX/HRP (Dako Agilent Technologies, Glostrup; DK) was employed as a detection system. […] Ki67 was analysed immunohistochemically. […] For Ki67 expression quantification in the samples, ten fields of the tumour representative DAB images were quantified by using the Fiji/Image J software.

obestatin
effect on FBS-mediated proliferation ([1]; 100 nM obestatin+10% FBS each 24 h for 72 h): significant inhibitory effect | proliferation (number of cells) ([1]; mouse obestatin (SEQ ID NO: 4) 100 nM each 24 h for 72 h, serum-free): does not activate the proliferation | diminution in the number of Ki67 positive cells [2]: 56.0±5.2%
